Measurements taken from ChEMBL document CHEMBL4725294, “Centrally Active Multitarget Anti-Alzheimer Agents Derived from the Antioxidant Lead CR-6” (J Med Chem, 2020).
Calls of active or inactive are those of the source. The rule behind the calls is not given here.

How the values were obtained:
[1] = Acute toxicity in C57BL6/J mouse assessed as piloerection at 15 mg/kg, ip measured after 10 to 15 mins; format: organism-based; settings: in vivo, time 10-15 min
Mus musculus [2] = assay: Antialzheimer activity in APP/PS1 double mutant-transgenic C57BL6/J mouse model assessed as reduction in Bace1 gene expression at 10 mg/kg/day, ip for 4 weeks followed by compound washout and measured after 24 hrs by qPCR analysis; format: functional, organism-based
Mus musculus [3] = assay: Antialzheimer activity in APP/PS1 double mutant-transgenic C57BL6/J mouse model assessed as reduction in amyloid beta burden in cortex at 10 mg/kg/day, ip for 4 weeks followed by compound washout and measured after 24 hrs by hematoxylin staining based microscopic analysis; format: functional, organism-based
Mus musculus [4] = assay: Antialzheimer activity in APP/PS1 double mutant-transgenic C57BL6/J mouse model assessed as reduction in Bace1 expression at 10 mg/kg/day, ip for 4 weeks followed by compound washout and measured after 24 hrs by Western blot analysis; format: functional, organism-based
Mus musculus [5] = assay: Antialzheimer activity in APP/PS1 double mutant-transgenic C57BL6/J mouse model assessed as increase in Adam10 gene expression at 10 mg/kg/day, ip for 4 weeks followed by compound washout and measured after 24 hrs by qPCR analysis; format: functional, organism-based
Beta-secretase 1 = Beta-secretase 1 (Homo sapiens, UniProt P56817); assay: Inhibition human BACE1 expressed in baculovirus expression system using Panvera peptide as substrate measured after 60 mins by fluorescence assay; settings: read-out: IC50
Mus musculus [6] = assay: Antialzheimer activity in APP/PS1 double mutant-transgenic C57BL6/J mouse model assessed as increase in SOD2 level at 10 mg/kg/day, ip for 4 weeks followed by compound washout and measured after 24 hrs by double immunostaining assay; format: functional, organism-based
Mus musculus [7] = assay: Antialzheimer activity in APP/PS1 double mutant-transgenic C57BL6/J mouse model assessed as increase in Adam10 expression at 10 mg/kg/day, ip for 4 weeks followed by compound washout and measured after 24 hrs by Western blot analysis; format: functional, organism-based
Mus musculus [8] = assay: Improvement in memory impairment in APP/PS1 double mutant-transgenic C57BL6/J mouse model assessed as […] at 10 mg/kg/day, ip for 4 weeks followed by compound washout by maze two-object recognition test; format: functional, organism-based
[9] = Acute toxicity in C57BL6/J mouse at 15 mg/kg, ip measured after 3 hrs; format: organism-based; settings: in vivo
Acetylcholinesterase = Acetylcholinesterase (Homo sapiens, UniProt P22303)
Description: Inhibition of recombinant human AChE expressed in HEK293 cells using acetylthiocholine iodide as substrate preincubated for 15 mins followed by substrate addition by Ellman's method

Mus musculus [10] = assay: Antialzheimer activity in APP/PS1 double mutant-transgenic C57BL6/J mouse model assessed as increase in GPX1 level at 10 mg/kg/day, ip for 4 weeks followed by compound washout and measured after 24 hrs by Western blot analysis; format: functional, organism-based
[11] = Acute toxicity in C57BL6/J mouse assessed as ptosis at 15 mg/kg, ip measured after 10 to 15 mins; format: organism-based; settings: in vivo, time 10-15 min
in vitro = settings: PAMPA
Description: Permeability of compound in PBS/EtOH buffer (7:3) PAMPA-BBB assay

[12] = Acute toxicity in C57BL6/J mouse at 5 to 10 mg/kg, ip measured up to 24 hrs; format: organism-based; settings: in vivo, dose 5-10 mg/kg
[13] = Acute toxicity in C57BL6/J mouse assessed as tremor at 15 mg/kg, ip measured after 10 to 15 mins; format: organism-based; settings: in vivo, time 10-15 min
Mus musculus [14] = assay: Antialzheimer activity in APP/PS1 double mutant-transgenic C57BL6/J mouse model assessed as reduction in soluble amyloid beta 40 level in cortex at 10 mg/kg/day, ip for 4 weeks followed by compound washout and measured after 24 hrs by ELISA; format: functional, organism-based
Mus musculus [15] = assay: Antialzheimer activity in APP/PS1 double mutant-transgenic C57BL6/J mouse model assessed as reduction in soluble amyloid beta 42 level in cortex at 10 mg/kg/day, ip for 4 weeks followed by compound washout and measured after 24 hrs by ELISA; format: functional, organism-based
Mus musculus [16] = assay: Antialzheimer activity in APP/PS1 double mutant-transgenic C57BL6/J mouse model assessed as reduction in oxidized protein level at 10 mg/kg/day, ip for 4 weeks followed by compound washout and measured after 24 hrs by Western blot analysis; format: functional, organism-based
Mus musculus [17] = assay: Antialzheimer activity in APP/PS1 double mutant-transgenic C57BL6/J mouse model assessed as increase in Nrf2 level at 10 mg/kg/day, ip for 4 weeks followed by compound washout and measured after 24 hrs by Western blot analysis; format: functional, organism-based
[18] = Acute toxicity in C57BL6/J mouse assessed as reduction in locomotor activity at 15 mg/kg, ip measured after 10 to 15 mins; format: organism-based; settings: in vivo, time 10-15 min
Cholinesterase = Cholinesterase (Homo sapiens, UniProt P06276)
Sequence of Cholinesterase (P06276 whole entry): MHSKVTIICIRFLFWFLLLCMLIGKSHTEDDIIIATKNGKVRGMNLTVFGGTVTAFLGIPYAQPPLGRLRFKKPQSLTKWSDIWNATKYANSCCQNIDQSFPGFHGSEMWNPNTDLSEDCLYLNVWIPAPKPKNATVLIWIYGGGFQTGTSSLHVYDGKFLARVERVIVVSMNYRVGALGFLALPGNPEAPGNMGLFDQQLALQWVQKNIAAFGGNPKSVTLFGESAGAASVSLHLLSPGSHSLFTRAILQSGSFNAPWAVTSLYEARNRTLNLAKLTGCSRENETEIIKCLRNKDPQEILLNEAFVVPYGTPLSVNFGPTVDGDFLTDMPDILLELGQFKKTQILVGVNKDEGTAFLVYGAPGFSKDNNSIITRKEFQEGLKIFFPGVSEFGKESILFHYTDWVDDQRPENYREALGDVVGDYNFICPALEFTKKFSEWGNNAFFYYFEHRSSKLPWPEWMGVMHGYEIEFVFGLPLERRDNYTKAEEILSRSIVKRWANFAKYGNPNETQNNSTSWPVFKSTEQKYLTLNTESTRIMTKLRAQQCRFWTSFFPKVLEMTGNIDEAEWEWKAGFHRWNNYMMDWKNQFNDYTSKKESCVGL
Description: Inhibition of recombinant human BChE using butyrylthiocholine iodide as substrate preincubated for 15 mins followed by substrate addition by Ellman's method

Sequence of Beta-secretase 1 (P56817 whole entry): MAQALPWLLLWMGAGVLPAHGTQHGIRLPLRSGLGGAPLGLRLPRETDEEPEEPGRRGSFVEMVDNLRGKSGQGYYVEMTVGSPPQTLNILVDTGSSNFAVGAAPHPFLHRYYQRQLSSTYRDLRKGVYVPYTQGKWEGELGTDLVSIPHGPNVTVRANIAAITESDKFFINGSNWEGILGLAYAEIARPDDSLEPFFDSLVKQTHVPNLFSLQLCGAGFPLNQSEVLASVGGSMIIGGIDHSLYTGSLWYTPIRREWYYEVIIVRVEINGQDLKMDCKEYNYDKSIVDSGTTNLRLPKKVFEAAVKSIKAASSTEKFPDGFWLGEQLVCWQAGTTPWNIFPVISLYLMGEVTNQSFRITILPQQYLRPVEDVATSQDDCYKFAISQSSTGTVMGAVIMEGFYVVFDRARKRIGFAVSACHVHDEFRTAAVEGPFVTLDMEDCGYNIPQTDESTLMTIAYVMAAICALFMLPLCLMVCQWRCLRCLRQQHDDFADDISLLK
Sequence of Acetylcholinesterase (P22303 whole entry): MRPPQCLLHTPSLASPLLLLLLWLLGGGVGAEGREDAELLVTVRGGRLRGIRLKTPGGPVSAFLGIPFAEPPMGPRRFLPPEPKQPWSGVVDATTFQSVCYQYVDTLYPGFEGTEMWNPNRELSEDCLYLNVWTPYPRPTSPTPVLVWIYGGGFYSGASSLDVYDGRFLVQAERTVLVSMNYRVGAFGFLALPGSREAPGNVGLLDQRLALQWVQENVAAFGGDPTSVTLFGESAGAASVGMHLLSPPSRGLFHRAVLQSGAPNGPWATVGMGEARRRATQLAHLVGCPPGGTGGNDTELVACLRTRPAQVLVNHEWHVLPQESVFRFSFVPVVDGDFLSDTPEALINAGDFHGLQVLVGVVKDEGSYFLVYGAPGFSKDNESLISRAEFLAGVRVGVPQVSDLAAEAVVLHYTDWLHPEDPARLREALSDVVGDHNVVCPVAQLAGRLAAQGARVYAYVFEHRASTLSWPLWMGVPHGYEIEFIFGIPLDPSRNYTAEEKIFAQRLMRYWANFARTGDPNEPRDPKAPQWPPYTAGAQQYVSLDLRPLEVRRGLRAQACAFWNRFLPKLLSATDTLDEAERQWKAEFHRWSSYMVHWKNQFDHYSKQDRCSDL

Q: Which results are given for `COc1cc2c(cc1OCc1ccccc1)CCC(C)(CC(=O)NCCCCCCCCNc1c3c(nc4cc(Cl)ccc14)CCCC3)O2` (configuration not stated)?
A: Activity [1]: Toxic; Activity (Mus musculus [2]): Active; Activity (Mus musculus [3]): inactive; Activity (Mus musculus [4]): inactive; Activity (Mus musculus [5]): Active; IC50 (Beta-secretase 1): 8310 nM; Activity (Mus musculus [6]): inactive; Activity (Mus musculus [7]): Active; Activity (Mus musculus [8]): inactive; Activity [9]: Non-Toxic; IC50 (Acetylcholinesterase): 10.4 nM; Activity (Mus musculus [10]): inactive; Activity [11]: Toxic; Papp (in vitro): 12.3 ×10⁻⁶ cm/s; Activity [12]: Non-Toxic; Activity [13]: Toxic; Activity (Mus musculus [14]): inactive; Activity (Mus musculus [15]): inactive; Activity (Mus musculus [16]): inactive; Activity (Mus musculus [17]): inactive; Activity [18]: Toxic; IC50 (Cholinesterase): 100 nM
